Source: US10392389B2, “Heterocyclic compounds for the inhibition of PASK” (BioEnergenix, LLC, priority 2012, dated 2019)

Columns and labels:
[1] = biological target: T1, CK2a2 (NP_001887; human full-length protein, GST tagged) (Homo sapiens, UniProt P19784); assay: Biochemical Assay for CK2 Activity; settings: 33P-ATP radiochemical assay, CK2 sub [RRRDDDSDDD]
T1 construct: human full-length protein, GST tagged; GST; host or cells: insect cells
Method: Biochemical Assay for CK2 Activity
(§1) Purified CK2a2 (NP_001887; human full-length protein, GST tagged) from insect cells (final concentration 1.2 nM) is added to freshly prepared Base Reaction Buffer containing 20 mM Hepes (pH 7.5), 10 mM MgCl2, 1 mM EGTA, 0.02% Brij35, 0.02 mg/ml BSA, 0.1 mM Na3VO4, 2 mM DTT, 1% DMSO and CK2 sub [RRRDDDSDDD] (20 μM final). Test compounds in DMSO are then added and the mixture, followed by delivery of ^33P-ATP (specific activity 0.01 μCi/μl final) to initiate the reaction. The kinase reaction is incubated for 120 min at room temperature. The entire reaction mixture is washed through onto a P81 Phosphocellulose paper and washed three times for 10 minutes in 75 mM phosphoric acid and once in methanol prior to drying and scintillation counting.

[2] = biological target: T2, PASK (Invitrogen) (Homo sapiens, UniProt Q96RG2); assay: PAS Kinase FRET Assay; format: biochemical; settings: PAS kinase TR-FRET assay (665 nm/615 nm); read-out: IC50 Kinase Domain
T2 construct: IC50 Kinase Domain; purchased Invitrogen
Excerpt: (§2) Biochemical Assay for hPASK Activity
The aim of the FRET assay is to determine the inhibition potential of test compounds on targeted kinase. This assay platform provides a homogenous screening method for measuring kinase activity by quantitating the amount of phospho-substrate in solution following a kinase reaction.
In the presence of kinase and ATP, the Ulight-peptide is phosphorylated and captured by an anti-phospho-substrate antibody, which brings the Eu chelate donor and Ulight acceptor dyes into close proximity. Upon excitation at 340 nm, the Eu chelate transfers its energy to the Ulight dye, resulting in a fluorescent light emission at 665 nm.
Titration of kinase at 1 mM ATP was achieved via the following protocol. After making serial three-fold dilutions of PASK (Invitrogen) in reaction buffer across the plate; 5 μl of kinase dilution and 5 μl substrate/ATP mix were added to the wells of the white Optiplate-384 (PerkinElmer). The contents of the plate were and incubated at RT for 1 h. The reaction was stopped by adding 5 μl of stop solution to each test well followed by mixing and incubation at RT for 10 minutes. 5 μl of detection mix (detection antibody diluted in detection buffer) was added; the contents of the plate were mixed and then incubated in the dark for 1 hour at RT. The signal was recorded at TR-FRET mode (665 nm/615 nm). The results were graphed to calculate the EC50.
Titration of ATP at the EC50 concentration of kinase to determine ATP Km,app. was performed using the following method. After making serial dilutions of ATP (Invitrogen), 5 μl of ATP dilution and 5 μl substrate/kinase mix were added to the wells of the white Optiplate-384 (PerkinElmer). The contents of the plate were and incubated at RT for 1 h. The reaction was stopped by adding 5 μl of stop solution to each test well followed by mixing and incubation at RT for 10 minutes. 5 μl of detection mix (detection antibody diluted in detection buffer) was added; the contents of the plate were mixed and then incubated in the dark for 1 hour at RT. The signal was recorded at TR-FRET mode (665 nm/615 nm). The results were graphed to calculate the EC50 as the ATP Km,app.
Compound screening was done via the following method. 10 mM stock solution of test compound in DMSO was prepared by dissolving test compound in DMSO at RT for 1 hour, and then sonicating at 100% output for 8 minutes. If compound is not soluble under this condition, it was diluted to 3 mM. Kinase reaction buffer was prepared containing 10 mM MgCl2, 50 mM HEPES, 1 mM EGTA, 0.01% TWEEN-20, 2 mM DTT. Serial dilutions of the test compounds were prepared at 4× final assay concentrations using Freedom EVO200® dispensing system as follows: 12×10^−5 M, 4×10^−5 M, 1.33×10^−5 M, 4.44×10^−6 M, 1.48×10^−6 M, 4.92×10^−7 M, 1.65×10^−7 M, […], 1.82×10^−8M, 6.09×10^−9, 2.03×10^−9 M. Test compounds (2.5 μl at 4× the final assay concentration) was added to wells using Freedom EVO200® dispensing system. As a positive control, 2.5 μl of positive compound was added to assay wells, and 2.5 μl of DMSO to assay wells as vehicle control. Kinase solution was prepared in reaction buffer at 2× final assay concentration. Kinase solution (5 μl) was added to each well of the assay plate. The substrate and ATP solution was prepared in kinase reaction buffer at 4× final assay concentration. The kinase reaction was started by adding 2.5 μl of substrate+ATP mix solution to each well of the assay plate. The plate is mixed on a plate shaker; then covered and allowed to react for 2 hours in the dark at 25° C. without shaking. The reaction was stopped by adding 5 μl of stop solution to each test well followed by mixing and incubation at RT for 10 minutes in the dark. 5 μl of detection mix (detection antibody diluted in detection buffer) was added; the contents of the plate were mixed and then incubated in the dark for 1 hour at RT. The signal was recorded at TR-FRET mode (665 nm/615 nm).

[3] = biological target: T3, PASK (UniProt #Q96RG2; human recombinant N-terminal GST tagged construct, residues 879-1323) (Homo sapiens, UniProt Q96RG2); assay: PASK ATP Radiochemical Assay; format: biochemical; settings: 33P-ATP, Myelin Basic Protein substrate, read-out: IC50 Kinase Domain
T3 construct: N-terminal GST tagged construct, residues 879-1323; GST (N); host or cells: insect cells
Method: as §2
PASK ATP Radiochemical Assay
as §1, with “PASK (UniProt #Q96RG2;” for “CK2a2 (NP_001887;”, “recombinant N-terminal” for “full-length protein,”, “tagged construct, residues 879-1323)” for “tagged)”, “5” for “1.2”, “HEPES” for “Hepes”, “Myelin Basic Protein” for “CK2 sub [RRRDDDSDDD]”

[4] = biological target: T4, PIM1 (NP_002639; human full-length protein, 6×His tagged) (Homo sapiens, UniProt P11309); assay: Biochemical Assay for PIM1 Activity; settings: 33P-ATP radiochemical assay, S6K/Rsk2 peptide 2 substrate
T4 construct: human full-length protein, 6×His tagged; 6xHis; host or cells: insect cells
Method: Biochemical Assay for PIM1 Activity
as §1, with “PIM1 (NP_002639;” for “CK2a2 (NP_001887;”, “6×His” for “GST”, “1.0” for “1.2”, “substrate S6K/Rsk2 peptide 2 [KKRNRTLTK]” for “CK2 sub [RRRDDDSDDD]”, “10” for “0.01”

T3 sequence (Q96RG2 879-1323, stated change not applied): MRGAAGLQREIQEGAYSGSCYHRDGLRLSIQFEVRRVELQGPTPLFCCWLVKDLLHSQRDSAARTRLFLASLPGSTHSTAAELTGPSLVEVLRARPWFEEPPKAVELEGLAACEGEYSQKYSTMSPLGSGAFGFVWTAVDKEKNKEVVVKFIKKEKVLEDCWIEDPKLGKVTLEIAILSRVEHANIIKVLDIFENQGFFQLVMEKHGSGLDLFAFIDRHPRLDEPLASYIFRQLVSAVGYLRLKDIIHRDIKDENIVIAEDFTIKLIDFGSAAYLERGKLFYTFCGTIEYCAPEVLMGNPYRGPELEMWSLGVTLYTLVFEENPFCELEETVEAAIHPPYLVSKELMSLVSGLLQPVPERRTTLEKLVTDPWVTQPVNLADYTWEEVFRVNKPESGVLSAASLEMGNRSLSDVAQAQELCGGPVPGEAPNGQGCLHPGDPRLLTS
T4 sequence (P11309 whole entry): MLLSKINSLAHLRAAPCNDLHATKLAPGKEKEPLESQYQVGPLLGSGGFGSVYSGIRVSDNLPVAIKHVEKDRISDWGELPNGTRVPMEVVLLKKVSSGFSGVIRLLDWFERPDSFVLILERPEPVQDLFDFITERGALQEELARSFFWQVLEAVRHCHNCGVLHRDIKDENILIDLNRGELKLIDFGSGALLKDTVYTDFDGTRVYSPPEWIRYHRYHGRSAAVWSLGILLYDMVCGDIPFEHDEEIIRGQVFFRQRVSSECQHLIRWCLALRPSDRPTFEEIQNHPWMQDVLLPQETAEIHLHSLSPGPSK
T1 sequence (P19784 whole entry): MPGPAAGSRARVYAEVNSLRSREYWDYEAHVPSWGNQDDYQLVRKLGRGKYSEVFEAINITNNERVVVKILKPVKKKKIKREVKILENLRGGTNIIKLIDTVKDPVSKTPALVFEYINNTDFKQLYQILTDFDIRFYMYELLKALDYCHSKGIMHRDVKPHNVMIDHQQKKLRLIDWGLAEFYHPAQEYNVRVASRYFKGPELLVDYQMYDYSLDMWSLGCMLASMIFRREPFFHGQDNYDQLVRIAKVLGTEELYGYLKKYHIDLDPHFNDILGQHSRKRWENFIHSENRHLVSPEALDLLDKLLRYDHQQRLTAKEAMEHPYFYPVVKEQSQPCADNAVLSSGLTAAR
T2 sequence (Q96RG2 999-1251 limits assumed): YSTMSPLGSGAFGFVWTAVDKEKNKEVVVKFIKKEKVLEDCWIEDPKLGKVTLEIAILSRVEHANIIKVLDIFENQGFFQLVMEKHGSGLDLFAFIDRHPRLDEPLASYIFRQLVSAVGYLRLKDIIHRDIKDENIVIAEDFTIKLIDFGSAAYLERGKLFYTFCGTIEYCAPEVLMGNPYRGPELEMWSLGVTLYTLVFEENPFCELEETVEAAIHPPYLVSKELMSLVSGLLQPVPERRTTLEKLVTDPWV

Structure (SMILES) | IC50 [1] | IC50 [2] | IC50 [3] | IC50 [4]
Cc1noc(-c2cnn3c(=O)cc(-c4ccc(Cl)c(Cl)c4)[nH]c23)n1 [Example 100, 5-(3,4-dichlorophenyl)-3-(3-methyl-1,2,4-oxadiazol-5-yl)-4H,7H-pyrazolo[1,5-a]pyrimidin-7-one] | ≤ 10 µM | ≤ 10 µM | ≤ 10 µM | ≤ 10 µM
O=c1cc(-c2ccc3[nH]ncc3c2)[nH]c2c(-c3ncco3)cnn12 [Example 23, 5-(1H-indazol-5-yl)-3-(oxazol-2-yl)pyrazolo[1,5-a]pyrimidin-7(4H)-one] | ≤ 10 µM | ≤ 10 µM | ≤ 10 µM | ≤ 10 µM
CCn1nccc1-c1cnn2c(=O)cc(-c3ccc(Cl)c(OC)c3)[nH]c12 [Example 65, 5-(4-chloro-3-methoxyphenyl)-3-(1-ethyl-1H-pyrazol-5-yl)pyrazolo[1,5-a]pyrimidin-7(4H)-one] | ≤ 10 µM | ≤ 10 µM | ≤ 10 µM | ≤ 10 µM
CCc1cnc(-c2cnn3c(=O)cc(-c4ccc5c(c4)OCO5)[nH]c23)o1 [Example 14, 5-(2H-1,3-benzodioxol-5-yl)-3-(5-ethyl-1,3-oxazol-2-yl)-4H,7H-pyrazolo[1,5-a]pyrimidin-7-one] | – | ≤ 10 µM | – | –
N#Cc1cc(-c2cc(=O)n3ncc(-c4ncco4)c3[nH]2)ccc1O [Example 75, 2-hydroxy-5-(3-(oxazol-2-yl)-7-oxo-4,7-dihydropyrazolo[1,5-a]pyrimidin-5-yl)benzonitrile] | – | ≤ 10 µM | – | –
CCc1nn2c(=O)cc(-c3ccc4c(cnn4CC)c3)[nH]c2c1-c1nc(C)no1 [Example 114, 2-ethyl-5-(1-ethyl-1H-indazol-5-yl)-3-(3-methyl-1,2,4-oxadiazol-5-yl)pyrazolo[1,5-a]pyrimidin-7(4H)-one] | – | ≤ 10 µM | – | –
Cc1noc(-c2cnn3c(=O)cc(-c4ccc(Cl)c(OCC(F)(F)F)c4)[nH]c23)n1 [Example 92, 5-[4-chloro-3-(2,2,2-trifluoroethoxy)phenyl]-3-(3-methyl-1,2,4-oxadiazol-5-yl)-4H,7H-pyrazolo[1,5-a]pyrimidin-7-one] | – | ≤ 10 µM | – | –

Other lines, results leading:

IC50 [1] | IC50 [2] | IC50 [3] | IC50 [4] | Structure (SMILES)
≤ 10 µM | ≤ 10 µM | ≤ 10 µM | ≤ 10 µM | COc1cc(-c2cc(=O)n3ncc(-c4nc(C)co4)c3[nH]2)ccc1Cl [Example 18, 5-(4-chloro-3-methoxyphenyl)-3-(4-methyl-1,3-oxazol-2-yl)-4H,7H-pyrazolo[1,5-a]pyrimidin-7-one]
≤ 10 µM | – | ≤ 10 µM | ≤ 10 µM | CCn1ncc2cc(-c3cc(=O)n4ncc(-c5cc(C)n[nH]5)c4[nH]3)ccc21 [Example 68, 5-(1-ethyl-1H-indazol-5-yl)-3-(3-methyl-1H-pyrazol-5-yl)pyrazolo[1,5-a]pyrimidin-7(4H)-one]
– | ≤ 10 µM | ≤ 10 µM | – | O=c1cc(-c2ccc3c(c2)OCO3)[nH]c2c(-c3ncco3)cnn12 [Example 1, 5-(2H-1,3-benzodioxol-5-yl)-3-(1,3-oxazol-2-yl)-4H,7H-pyrazolo[1,5-a]pyrimidin-7-one]
– | ≤ 10 µM | – | – | Cc1csc(-c2cnn3c(=O)cc(-c4ccc(Cl)c(Cl)c4)[nH]c23)n1 [Example 101, 5-(3,4-dichlorophenyl)-3-(4-methylthiazol-2-yl)pyrazolo[1,5-a]pyrimidin-7(4H)-one]
– | ≤ 10 µM | – | – | COc1cc(-c2cc(=O)n3ncc(-c4nc5ccccc5o4)c3[nH]2)ccc1Cl [Example 45, 3-(benzo[d]oxazol-2-yl)-5-(4-chloro-3-methoxyphenyl)pyrazolo[1,5-a]pyrimidin-7(4H)-one]
– | ≤ 10 µM | – | – | CCc1noc2cc(-c3cc(=O)n4ncc(C(N)=O)c4[nH]3)ccc12 [Example 123, 5-(3-ethylbenzo[d]isoxazol-6-yl)-7-oxo-4,7-dihydropyrazolo[1,5-a]pyrimidine-3-carboxamide]
– | ≤ 10 µM | – | – | CCOc1cc(-c2cc(=O)n3ncc(-c4ccnn4C)c3[nH]2)ccc1F [Example 78, 5-(3-ethoxy-4-fluorophenyl)-3-(1-methyl-1H-pyrazol-5-yl)pyrazolo[1,5-a]pyrimidin-7(4H)-one]
– | ≤ 10 µM | – | – | COc1cc(-c2cc(=O)n3ncc(-c4noc5ccccc45)c3[nH]2)ccc1Cl [Example 50, 3-(benzo[d]isoxazol-3-yl)-5-(4-chloro-3-methoxyphenyl)pyrazolo[1,5-a]pyrimidin-7(4H)-one]
– | ≤ 10 µM | – | – | Cc1noc(-c2cnn3c(=O)cc(-c4ccc5occc5c4)[nH]c23)n1 [Example 62, 5-(benzofuran-5-yl)-3-(3-methyl-1,2,4-oxadiazol-5-yl)-4H,7H-pyrazolo[1,5-a]pyrimidin-7-one]
– | ≤ 10 µM | – | – | CCn1nnc2cc(-c3cc(=O)n4ncc(-c5ncco5)c4[nH]3)ccc21 [Example 49, 5-(1-ethyl-1H-benzo[d][1,2,3]triazol-5-yl)-3-(oxazol-2-yl)pyrazolo[1,5-a]pyrimidin-7(4H)-one]
